Results taken from ChEMBL document CHEMBL6153110, “Peptide Double-Stapling and Arginine N-Glycosylation Triggered the Development of Therapeutic Antimicrobial Peptides Capable of Killing Drug-Resistant Bacteria in Mice” (J Med Chem, 2025).
Converted amounts (≈) assume the structure as drawn. Positions of bridges follow the written chain, without caps; N, C: chain ends. Non-standard residues stand in square brackets, D forms with d. Residues, ends and D or L forms follow the SMILES beside them. S5 = C=CCCC[C@](C)(N)C(=O)O

What was measured:
Klebsiella pneumoniae = assay: Antimicrobial activity against Klebsiella pneumoniae ATCC 13883 assessed as growth inhibition measured after 8 hrs incubation by standard broth dilution assay; format: functional
[1] = Hemolytic activity in BALB/c mouse red blood cells assessed as hemolysis incubated for 1 hrs; format: toxicity, cell-based, Erythrocyte; settings: read-out: HD50
Staphylococcus aureus = assay: Antimicrobial activity against methicillin-resistant Staphylococcus aureus ATCC 43300 assessed as growth inhibition measured after 8 hrs incubation by standard broth dilution assay; format: functional
Streptococcus pneumoniae = assay: Antimicrobial activity against Streptococcus pneumoniae ATCC 49619 assessed as growth inhibition measured after 8 hrs incubation by standard broth dilution assay; format: functional
Pseudomonas aeruginosa = assay: Antimicrobial activity against Pseudomonas aeruginosa ATCC 27853 assessed as growth inhibition measured after 8 hrs incubation by standard broth dilution assay; format: functional

Compound | MIC (Klebsiella pneumoniae) [µg/mL] | HC50 at 1 h [1] [µg/mL] | MIC (Staphylococcus aureus) [µg/mL] | MIC (Streptococcus pneumoniae) [µg/mL] | MIC (Pseudomonas aeruginosa) [µg/mL]
CC(=O)N[C@@H](CC(C)C)C(=O)N[C@@H](CCCCN)C(=O)N[C@@H](CCCNC(=N)N)C(=O)N[C@@H](CCCCN)C(=O)N[C@@H](Cc1c[nH]c2ccccc12)C(=O)N[C@@H](CCCCN)C(=O)N[C@@H](CCCNC(=N)N)C(=O)N[C@H](C(=O)N[C@@H](Cc1ccccc1)C(=O)N[C@@H](CCCCN)C(=O)N[C@@H](CC(C)C)C(=O)N[C@@H](CC(C)C)C(=O)N[C@@H](CCCCN)C(=O)N[C@@]1(C)CCC/C=C\CCC[C@@](C)(C(=O)N[C@@H](CC(C)C)C(=O)N[C@@H](CCCCN)C(=O)N[C@@H](CCCCN)C(=O)N2CCC[C@H]2C(=O)N[C@H](C(=O)N[C@@H](CCCNC(=N)N)C(N)=O)C(C)C)NC(=O)[C@H](CCCNC(=N)N)NC(=O)[C@H](Cc2c[nH]c3ccccc23)NC(=O)[C@H](Cc2ccc(O)cc2)NC1=O)C(C)C (Ac-LKRKWKRVFKLLK[S5]YWR[S5]LKKPVR-NH2; staple (Z) 14-18) | 10.1 (≈ 3.1 µM) | 9.9 | 4.9 (≈ 1.5 µM) | 2.4 (≈ 0.736 µM) | 5 (≈ 1.53 µM)
CC(=O)N[C@@H](CC(C)C)C(=O)N[C@@H](CCCCN)C(=O)N[C@@H](CCCNC(=N)N)C(=O)N[C@H](C(=O)N[C@@H](CCCCN)C(=O)N[C@@H](CCCCN)C(=O)N[C@@H](CCCNC(=N)N)C(=O)N[C@H](C(=O)N[C@@H](Cc1ccccc1)C(=O)N[C@@H](CCCCN)C(=O)N[C@@H](CC(C)C)C(=O)N[C@@H](CC(C)C)C(=O)N[C@@H](CCCCN)C(=O)N[C@@]1(C)CCC/C=C\CCC[C@@](C)(C(=O)N[C@@H](CC(C)C)C(=O)N[C@@H](CCCCN)C(=O)N[C@@H](CCCCN)C(=O)N2CCC[C@H]2C(=O)N[C@H](C(=O)N[C@@H](CCCNC(=N)N)C(N)=O)C(C)C)NC(=O)[C@H](CCCNC(=N)N)NC(=O)[C@H](Cc2c[nH]c3ccccc23)NC(=O)[C@H](Cc2ccc(O)cc2)NC1=O)C(C)C)C(C)C (Ac-LKRVKKRVFKLLK[S5]YWR[S5]LKKPVR-NH2; staple (Z) 14-18) | 10.1 (≈ 3.18 µM) | 15.3 | 19 (≈ 5.98 µM) | 4.7 (≈ 1.48 µM) | 5 (≈ 1.57 µM)
CC(=O)N[C@@H](CC(C)C)C(=O)N[C@@H](CCCCN)C(=O)N[C@@H](CCCNC(=N)N)C(=O)N[C@H](C(=O)N[C@@H](Cc1c[nH]c2ccccc12)C(=O)N[C@@H](CCCCN)C(=O)N[C@@H](CCCNC(=N)N)C(=O)N[C@@H](CCCCN)C(=O)N[C@@H](Cc1ccccc1)C(=O)N[C@@H](CCCCN)C(=O)N[C@@H](CC(C)C)C(=O)N[C@@H](CC(C)C)C(=O)N[C@@H](CCCCN)C(=O)N[C@@]1(C)CCC/C=C\CCC[C@@](C)(C(=O)N[C@@H](CC(C)C)C(=O)N[C@@H](CCCCN)C(=O)N[C@@H](CCCCN)C(=O)N2CCC[C@H]2C(=O)N[C@H](C(=O)N[C@@H](CCCNC(=N)N)C(N)=O)C(C)C)NC(=O)[C@H](CCCNC(=N)N)NC(=O)[C@H](Cc2c[nH]c3ccccc23)NC(=O)[C@H](Cc2ccc(O)cc2)NC1=O)C(C)C (Ac-LKRVWKRKFKLLK[S5]YWR[S5]LKKPVR-NH2; staple (Z) 14-18) | 10.1 (≈ 3.1 µM) | 32.3 | 10.1 (≈ 3.1 µM) | 2.4 (≈ 0.736 µM) | 5 (≈ 1.53 µM)
CC(=O)N[C@@H](CC(C)C)C(=O)N[C@@H](CCCCN)C(=O)N[C@@H](CCCNC(=N)N)C(=O)N[C@H](C(=O)N[C@@H](Cc1c[nH]c2ccccc12)C(=O)N[C@@H](CCCCN)C(=O)N[C@@H](CCCNC(=N)N)C(=O)N[C@H](C(=O)N[C@@H](Cc1ccccc1)C(=O)N[C@@H](CCCCN)C(=O)N[C@@H](CCCCN)C(=O)N[C@@H](CC(C)C)C(=O)N[C@@H](CCCCN)C(=O)N[C@@]1(C)CCC/C=C\CCC[C@@](C)(C(=O)N[C@@H](CC(C)C)C(=O)N[C@@H](CCCCN)C(=O)N[C@@H](CCCCN)C(=O)N2CCC[C@H]2C(=O)N[C@H](C(=O)N[C@@H](CCCNC(=N)N)C(N)=O)C(C)C)NC(=O)[C@H](CCCNC(=N)N)NC(=O)[C@H](Cc2c[nH]c3ccccc23)NC(=O)[C@H](Cc2ccc(O)cc2)NC1=O)C(C)C)C(C)C (Ac-LKRVWKRVFKKLK[S5]YWR[S5]LKKPVR-NH2; staple (Z) 14-18) | 38 (≈ 11.7 µM) | 35.2 | 10.1 (≈ 3.11 µM) | 4.7 (≈ 1.45 µM) | 5 (≈ 1.54 µM)
